Test results: patent EP1374909A2, “Evaluation of, delivery of, and use of agents to treat heart disorders” (THE GENERAL HOSPITAL CORPORATION, priority 1997, dated 1999)

Tested on: neonatal cardiomyocytes
Assay: Intracellular Ca2+ measurements (fura 2) and cell shortening detection
Type: cell-based, rats
Conditions: maximal isoproterenol stimulation; uninfected and Ad.RSV.PL-infected (10 pfu/cell) cardiomyocytes, 1 Hz
Procedure: Spontaneously beating cardiomyocytes were prepared from 1 to 2 day old rats and cultured in P-10 medium (GIBCO,BRL) in the presence of 5% fetal calf serum and 10% horse serum for 3 days as described previously in Kang J.X. et al., Proc. Natl. Acad. Sci. U.S.A., 1995, 92:[…] and Kang J.X. and Leaf A., Euro. J. Pharmacol., 1996, 297:97-106, the contents of which are incorporated herein by reference. Measurements of cell shortening and cytosolic Ca^2+ were performed on neonatal cardiomyocytes cultured on round, coated, glass coverslips (0.1 mm thickness, 31 mm diameter) in 35 mm culture dishes. Cells were counted using a hemocytometer. Approximately 5x10^5 cells were plated in each coverslip.
Measurements of intracellular Ca^2+ and cell shortening were performed as described earlier in Hajjar et al. (1997), Kang et al. (1995) and Kang et al (1996), the contents of which are incorporated herein by reference. […] A dual excitation spectrofluorometer (IONOPTIX) was used to record fluorescence emissions (505 nm) elicited from exciting wavelengths of 360 and 380 nm. […] High-contrast microspheres attached to the cell surface of the cardiomyocytes were imaged using a charge-coupled device video camera attached to the microscope, and motion along a selected raster line segment who quantified by a video motion detector system (IONOPTIX).

With `CC(C)NCC(O)c1ccc(O)c(O)c1` (stereo not shown) [isoproterenol] the “time course of the Ca^2+ transients” value was “decreased to the same level”.
